For test [1], the target named is HSV-1 thymidine kinase, wild-type (pMCC), SEQ ID 13 (codons 165-175) (Human herpesvirus 1, UniProt P06478). It counts as biochemical, Herpes Simplex Virus Type 1. As to conditions: Table I; purified enzyme, 34°C, 10 minutes. On the procedure:
(§1) Purification of wild-type and mutant TKs was performed by affinity chromatography on CH-Sepharose 4B (Pharmacia) coupled to p-aminophenylthymidine 3'-phosphate. Briefly, crude bacterial extract was passed three times through a 7-mL bed-volume affinity column. The column was then washed sequentially using 30 mL each of buffer A [0.1 M Tris HCl, pH 7.5/5 mM dithiothreitol (DTT)/10% glycerol], buffer B (0.1M Tris-HCl, pH 7.5/0.5 M KCl/5 mM DTT/10% glycerol), and buffer A. TK was eluted using a 60-mL linear gradient of 0-600 µM dT in buffer C (0.3 M Tris HCl, pH 7.4/50 mM KCl/10% glycerol). Active fractions were pooled and dialyzed against three changes each of 2 liters of 50 mM Tris-HCl, pH 7.4/5 mM DTT/10% glycerol. Except in the final dialysis, all the above buffers contained 50 µg/mL of aprotinin and 2 µg/mL each of pepstatin and leupeptin.
(§2) Secondly, the kinetics of AZT phosphorylation by the two mutants was determined. […] (One unit of enzyme is defined as that amount that can phosphorylate 1.0 pmol of dT to TMP in 1 minute under the conditions described above.) Incubation was at 34°C ± 1°C for 10 minutes, and reactions were stopped by adding 1.0 mM unlabeled dT and cooling on ice. Half of the reaction mixtures were pipetted onto a DEAE-cellulose disc (25 mm), dipped in distilled water (1 minute), followed by four washes in absolute ethanol. The amount of radioactivity adsorbed to the disc was determined by scintillation spectroscopy. […] All other components in the reaction mixtures and the incubation conditions were as described above for phosphorylation of AZT.
(§3) All buffers used in the purification of TK contained 5mM DTT, 50 µ/mL aprotinin, 2 µg/mL each of leupeptin and pepstatin and I mM PMSF unless otherwise indicated. […] TK assay was performed on all the fractions and peak TK - fractions were pooled and dialyzed against three changes of 21 of dialysis buffer (50 mM Tris-HCl, pH 7.4, 5 mM DTT, 10% glycerol). In the final dialysis, protease inhibitors were omitted from the buffer and the dialyzed fractions were aliquoted and stored at -70°C. The column was washed thoroughly twice by using the same washing and elution protocols as described above prior to application of each extract preparation.
(§4) Kinetic parameters were determined essentially as described below. […] Incubation was at 34 ± 1°C for 10 minutes. […] Half of the reaction mix was pipetted onto a DEAE-cellulose disc (25 mm) and the disc was dipped in distilled water (1 minute) followed by four washes each in 10 mL of absolute ethanol. The adsorbed products on the disc were counted in a scintillation counter.

In test [2] the target is HSV-1 thymidine kinase mutant TKI 208 (Leu-170 to Val), SEQ ID 23 (codons 165-175) (Human herpesvirus 1, UniProt P06478, L170V). It counts as biochemical, Herpes Simplex Virus Type 1. As to conditions: Table I; purified enzyme, 34°C, 10 minutes. On the procedure:
as §1, §2, §3, §4

Test [3] relates to rat C6 glioblastoma cells transfected with TK mutant 30, subcutaneous tumor. Description: Mouse xenograft tumor model with prodrug treatment. It counts as in vivo, Nude mice. The settings on record: prodrug twice a day for 5 days from day 5; Figures 32-34. On the procedure: (§5) Rat C6 glioblastoma cells were transfected with the stable expression vector pREP8D7:dualGFP as described above containing various TK mutants. […] Experiments were carried out to establish prodrug dosing levels for tumor ablation and efficacy of therapy. Nude mice (JAX Labs, Bar Harbor, Maine) were injected subcutaneously with 0.5 x10^6 transfected rat C6 cells. After 5 days, prodrugs (ACV and GCV) were administered twice a day for a further 5 days. Prodrug was given at either of two concentrations (shown as mg/kg). During this period and for an additional 6 days, tumor size was monitored by caliper measurement every other day. At the end of the period, mice were sacrificed and the tumors excised and weighed.

Test [4] relates to rat C6 glioblastoma cells transfected with TK mutant SR39, subcutaneous tumor. Description: Mouse xenograft tumor model with prodrug treatment. The class given is in vivo, Nude mice. The settings on record: prodrug twice a day for 5 days from day 5; Figures 32-34. On the procedure: as §5

Structures are written as SMILES. Several values for one entry are separate records, joined by “and”; a condition that tells them apart may be missing. Identical values can stand only once.

Chain of HSV-1 thymidine kinase, wild-type (pMCC), SEQ ID 13 (codons 165-175) (P06478 whole entry, looked up): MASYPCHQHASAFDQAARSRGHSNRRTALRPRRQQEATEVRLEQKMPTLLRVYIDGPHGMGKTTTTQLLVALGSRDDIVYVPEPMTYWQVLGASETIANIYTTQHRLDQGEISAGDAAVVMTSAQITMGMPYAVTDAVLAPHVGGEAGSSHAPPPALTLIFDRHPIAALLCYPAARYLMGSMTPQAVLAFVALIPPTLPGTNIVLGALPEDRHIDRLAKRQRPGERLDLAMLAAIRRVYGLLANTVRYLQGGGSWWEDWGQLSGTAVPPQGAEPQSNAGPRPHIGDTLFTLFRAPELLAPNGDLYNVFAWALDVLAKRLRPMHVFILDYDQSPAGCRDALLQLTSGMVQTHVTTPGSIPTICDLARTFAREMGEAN
Chain of HSV-1 thymidine kinase mutant TKI 208 (Leu-170 to Val), SEQ ID 23 (codons 165-175) (P06478 whole entry L170V, looked up): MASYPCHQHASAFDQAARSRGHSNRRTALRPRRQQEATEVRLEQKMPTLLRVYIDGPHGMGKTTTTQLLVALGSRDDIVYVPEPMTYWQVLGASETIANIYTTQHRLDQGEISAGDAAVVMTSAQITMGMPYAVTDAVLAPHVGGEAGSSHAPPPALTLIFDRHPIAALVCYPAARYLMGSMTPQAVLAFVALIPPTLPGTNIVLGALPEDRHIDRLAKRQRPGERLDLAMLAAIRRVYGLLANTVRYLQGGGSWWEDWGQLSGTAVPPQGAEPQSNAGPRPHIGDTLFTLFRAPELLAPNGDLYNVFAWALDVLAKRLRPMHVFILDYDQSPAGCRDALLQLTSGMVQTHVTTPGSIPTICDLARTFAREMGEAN

What is called Km is the substrate concentration at which the rate is half of its maximum. The term kcat denotes the maximal rate divided by the concentration of active sites. Regarding `Cc1cn([C@H]2C[C@H](N=[N+]=[N-])[C@@H](CO)O2)c(=O)[nH]c1=O` [AZT, 3' azido-3' thymidine], in test [1], the Michaelis-Menten constant (Km) is 8.5 µM and 8.46 µM; the catalytic constant (kcat) was 0.036 s⁻¹. Besides, in test [2], the Km amounted to 4.4 µM and the catalytic constant (kcat) came out at 0.03 s⁻¹.

On to `Nc1nc2c(ncn2COCCO)c(=O)[nH]1` [acyclovir], for which the “tumor reduction (tumor diameter, final tumor weight)” value in test [3] and in test [4] was “significant tumor reduction” each time.
